{
  "source": "patent US20240024279A1",
  "about": "“METHODS FOR REDUCING THE WEIGHT LOSS OR INCREASING THE WEIGHT OF A FELINE IN NEED THEREOF” (INCREVET, INC., priority 2019, published 2024)",
  "key": {"[1]": {"test_system": "healthy purpose-bred cats", "assay": "Urinary glucose excretion in healthy purpose-bred cats after once-daily oral velagliflozin capsules for three days", "type": "in vivo, cat", "conditions": "gelatin capsules once a day for three days, urine", "experimental": "Velagliflozin (2-(4-cyclopropylbenzyl)-4-((2S,3R,4R,5S,6R)-3,4,5-trihydroxy-6-(hydroxymethyl)tetrahydro-2H-pyran-2-yl)benzonitrile, CAS number 946525-65-1; Compound 1) can be prepared by a variety of means, including as described in US2015/0164856A1 and is commercially available, for example as catalog number HY-109018 from MedChemExpress. Velagliflozin formulated in gelatin capsules was administered to healthy purpose-bred cats once a day for three days and the urinary glucose excretion recorded over the three consecutive 24-hour periods following dosing. Velagliflozin was administered at three dose levels: 1 mg, 3 mg and 10 mg per cat per day. The mean daily glucose excretion over three days was 2527 mg, 3601 mg and 5256 mg for mean dosages of 0.318 mg/kg, 0.953 mg/kg and 3.071 mg/kg, respectively."}, "[2]": {"test_system": "client-owned cats diagnosed with diabetes mellitus", "assay": "Field effectiveness study in client-owned cats with diabetes mellitus", "type": "in vivo, cat", "conditions": "diabetic cats, oral once daily, day 0 to day 56, low-carbohydrate diet", "experimental": "In a field effectiveness study, client-owned cats diagnosed with diabetes mellitus based on: i) two separate fasting (>6 h) blood glucose measurements >250 mg dL^−1; ii) glucosuria; iii) fructosamine >25% above the upper limit of normal for the testing laboratory, and iv) one or more of the following: polyuria/polydipsia, polyphagia and/or weight loss (documented in the cat's medical records) can be enrolled. Cats with suspected diabetes mellitus can be evaluated during visit 1 (within 7 days prior to day 0). Eligible cats can be enrolled during visit 2 (day 0) and management can be initiated using velagliflozin administered orally once daily. Cats can be prescribed a low-carbohydrate diet. Cats would return to the clinic for evaluation of glycemic control during visits 3 (day 14±3), 4 (day 28±3), and 5 (day 56±3). […] A cat can be brought back to the clinic at any time for unscheduled visits if such visits are determined to be necessary by the owner or investigator. Eight-hour blood glucose curves (blood samples collected every 2 h±15 min for 8 h) can be conducted at every visit starting with visit 2 (day 0) and blood glucose can be measured using an AlphaTRAK 2 glucometer (Abbott Laboratories). […] A central laboratory would be used to evaluate all clinical pathology samples (blood, serum, and urine) that are not analyzed in the clinic for blood glucose curves. […]"}, "obese cats": {"test_system": "obese cats", "conditions": "velagliflozin group, 1 mg/kg in gelatin capsules, cited from earlier work"}, "[3]": {"conditions": "most species; cited from earlier work"}, "[4]": {"test_system": "experimental diabetes in cats", "conditions": "cats with experimental diabetes, subcutaneous injection of a suspension in olive oil; cited from earlier work"}, "[5]": {"test_system": "experimental diabetes in dogs", "conditions": "pancreatectomized animals in full glycosuria; cited from earlier work"}},
  "note": "“Also recorded” adds a separate entry of the source.",
  "data": [
    {"smiles": "N#Cc1ccc([C@@H]2O[C@H](CO)[C@@H](O)[C@H](O)[C@H]2O)cc1Cc1ccc(C2CC2)cc1", "note": "[Velagliflozin, 2-(4-cyclopropylbenzyl)-4-((2S,3R,4R,5S,6R)-3,4,5-trihydroxy-6-(hydroxymethyl)tetrahydro-2H-pyran-2-yl)benzonitrile]", "values": [
      {"measurement": "mean daily glucose excretion over three days", "setting": "[1]; 1 mg per cat per day, mean dosage 0.318 mg/kg", "result": 2527, "unit": "mg"},
      {"measurement": "mean daily glucose excretion over three days", "setting": "[1]; 3 mg per cat per day, mean dosage 0.953 mg/kg", "result": 3601, "unit": "mg"},
      {"measurement": "mean daily glucose excretion over three days", "setting": "[1]; 10 mg per cat per day, mean dosage 3.071 mg/kg", "result": 5256, "unit": "mg"},
      {"measurement": "body weight change", "setting": "[2]", "result": "Weight gain and reduction in weight loss; also recorded: increase the average weight of a cat or reduce the weight loss of a cat"},
      {"measurement": "owner-evaluated clinical signs (polydipsia, polyphagia, polyuria)", "setting": "[2]", "result": "improvement in polydipsia, polyphagia and polyuria"},
      {"measurement": "body weight at end of treatment", "setting": "obese cats; after the course of treatment", "result": "7.0 ± 1.4", "unit": "kg"},
      {"measurement": "food intake at end of treatment", "setting": "obese cats; after the course of treatment", "result": "58 ± 11", "unit": "g"},
      {"measurement": "body weight at start of treatment", "setting": "obese cats; before treatment", "result": "7.2 ± 1.5", "unit": "kg"},
      {"measurement": "food intake at start of treatment", "setting": "obese cats; before treatment", "result": "57 ± 8", "unit": "g"}
    ]},
    {"smiles": "O=C(CCc1ccc(O)cc1)c1c(O)cc(O)cc1O[C@@H]1O[C@H](CO)[C@@H](O)[C@H](O)[C@H]1O", "note": "[phlorizin]", "values": [
      {"measurement": "half-life", "setting": "[3]", "result": "short half-life"},
      {"measurement": "effect on hyperglycemia", "setting": "[4]", "result": "dramatic reduction of hyperglycemia"},
      {"measurement": "effect on hyperglycemia", "setting": "[5]", "result": "the hyperglycemia disappears"}
    ]}
  ]
}
